This note sets out measurements from patent US20110237677A1, “Inhibitors” (The University of Nottingham, priority 2008, published 2011).

The subject of test [1] is myometrial strips. As to the kind of experiment: Isometric tension recording, spontaneous contractions of myometrial strips. The class given is cell-based, human. The conditions noted are these: 2 g tension, organ bath; dose-dependent. The protocol:
FIG. 9 Diagrammatic representations showing that spontaneous contractions in myometrial strips are inhibited by cystamine (n=4), cysteamine (n=3) and MDC (n=2) in a dose-dependent manner. Control strips are shown with unbroken line (n=2). Tissue is used 24 hours following elective caesarean section and contractions are allowed to spontaneously initiate under 2 g tension and in a temperature controlled and oxygenated organ bath.
(§1) Longitudinal myometrial strips were mounted in an organ bath and contractile activity recorded as a measure of tensile force as previously described (Chanrachakul, Broughton-Pipkin et al., Am J Obstet Gynecol 192(2): 458-63, 2005). Myometrial contractions were initially stimulated by addition of oxytocin, bradykinin or phenylephrine (Sigma-Aldrich; 10^−10 mol/L, 10^−8 mol/L, 10^−8 mol/L respectively). Once rhythmic contractions had been achieved cumulative additions of cystamine (Sigma-Aldrich; 10^−8 to 10^−2 mol/L), mono-dansylcadaverine (MDC) (Sigma-Aldrich; 10^−8 to 10^−4 mol/L), cysteamine (Sigma-Aldrich; 10^−9 to 10^−2 mol/L), putrescine (Sigma-Aldrich; 10^−8 to 10^−4 mol/L) were added at 25 minute intervals. Contractile activity was determine by activity integral measured from 20 minutes time periods for each drug addition and analysed along with time-matched control myometrial strips under the same conditions but with vehicle additions (physiological salt solution).

A further test concerns human myometrial tissue. Put plainly: Isometric tension recording, oxytocin-induced contractions of myometrial strips. The class given is cell-based. The conditions noted are these: for EC50: Homo sapiens, inhibition of contractions stimulated with 10^−10M oxytocin, pooled experiments, cumulative additions, tissue 24 hours after elective caesarean; for effect on oxytocin-induced contractions: dose-dependent, 10^−10M oxytocin; for oxytocin-induced contractions after removal of the inhibitor by washing: washing with physiological salt solution, re-stimulation with oxytocin.
Description: as §1

The test system of test [2] is myometrial strips. Put plainly: Isometric tension recording, bradykinin-induced contractions of myometrial strips. The conditions noted are these: bradykinin 10^−8M; compared to control strips. The class given is cell-based, human.
Description: as §1

Test [3] has as its system Myometrial smooth muscle cells. Put plainly: Calcium mobilisation assay, oxytocin stimulated. The class given is cell-based, human. The following applies: for effect on maximal calcium mobilisation: incubation with 10^−6M inhibitor, oxytocin stimulated; for Emax, maximal calcium mobilisation on oxytocin stimulation: pre-incubation for 10 minutes with 10^−6M inhibitor, FlexStation fluorescence. Here is the method:
Myometrial smooth muscle cells were grown in DMEM (Dulbecco's Modified Eagle Medium; Sigma-Aldrich) supplemented with 10% fetal calf serum, L-glutamine and 0.2% pen/strep at 37° C. 5% CO2, following dissociation in 2 mg/ml collagenase (Sigma-Aldrich). Once confluent cells were plated on black-walled flat-bottomed sterile 96-well plates (Costar) at a concentration of 10^5 cells/ml and in the same media makeup and again grown to confluence. Once confluent, cells were incubated in 100 μl media/well containing 2.5 mM probenecid (Sigma-Aldrich), 2.3 μM Fluo-4 (invitrogen) and 0.023% pluronic acid (Invitrogen) for one hour in the dark at 37° C. 5% CO2. Cells were then washed twice with phosphate buffered saline and finally incubated in 100 μl/well PSS (Chanrachakul, Broughton-Pipkin et al., Am J Obstet Gynecol 192(2): 458-63, 2005) containing 2.5 mM probenecid with or without 10^−6 mol/L cystamine, MDC or cysteamine for 10 minutes. Fluorescent readout was then recorded on FlexStation ([…]) over a 200 second period with oxytocin addition at 15 seconds (10^−11 to 10^−5 mol/L) and ionomycin, to measure maximal potential response, at 150 seconds (10^−6 mol/L; Sigma-Aldrich).
Background: A change in cytosolic calcium serves as a functional read-out for many receptors and channels.

Test [4] relates to myometrial strips. As to the kind of experiment: Isometric tension recording, phenylephrine-induced contractions of myometrial strips. The class given is cell-based, human. The conditions noted are these: phenylephrine 10^−8M; compared to control strips.
Description: as §1

Turning to `CN(C)c1cccc2c(S(=O)(=O)NCCCCCN)cccc12` [MDC, Monodansylcadaverine], the “effect on spontaneous contractions” value in the test with myometrial strips [1] is “inhibited”. In the test with human myometrial tissue, it took 22 µM to reach a half-maximal effect (EC50), the “effect on oxytocin-induced contractions” value is “inhibited” and the “oxytocin-induced contractions after removal of the inhibitor by washing” value is “return to control levels”. For the same molecule, the “contractility, % of untreated control myometrium” value in the test with human myometrial tissue (MDC 10^−4M, contractions stimulated with 10^−10M oxytocin) is on record as 17.8%±6.2. Also, the “effect on bradykinin induced contractions” value in the test on myometrial strips [2] is given as “inhibited in a dose dependent manner”. In addition, in test [3], the “effect on maximal calcium mobilisation” value was “significantly reduced” and the “Emax, maximal calcium mobilisation on oxytocin stimulation” value (shortened to “Emax, maximal calcium mobilisation”) was determined as 81.45. In the test on myometrial strips [4], the “effect on phenylephrine induced contractions” value is “inhibited in a dose dependent manner”.

Regarding `NCCSSCCN` [cystamine], in the test on myometrial strips [1], the “effect on spontaneous contractions” value is listed as “inhibited”. In the test on human myometrial tissue, the EC50 is 1310 µM, the “effect on oxytocin-induced contractions” value is “inhibited” and the “oxytocin-induced contractions after removal of the inhibitor by washing” value is reported as “return to control levels”. Moreover, in the test with myometrial strips [2], the “effect on bradykinin induced contractions” value is reported as “inhibited in a dose dependent manner”. In addition, in test [3], the “effect on maximal calcium mobilisation” value is given as “significantly reduced” and the “Emax, maximal calcium mobilisation” value came to 87.67. For the same molecule, the “effect on phenylephrine induced contractions” value with myometrial strips [4] is listed as “inhibited in a dose dependent manner”.

`NCCS` [cysteamine]: the “effect on spontaneous contractions” value in the test on myometrial strips [1] is listed as “inhibited”. In the test on human myometrial tissue, the EC50 was 1.63 µM, the “effect on oxytocin-induced contractions” value is recorded as “inhibited” and the “oxytocin-induced contractions after removal of the inhibitor by washing” value is “began to return to control levels”. In test [3], the “effect on maximal calcium mobilisation” value is recorded as “significantly reduced” and the “Emax, maximal calcium mobilisation” value was found to be 98.95.

In the case of `NCCCCN` [putrescine], in the test with human myometrial tissue, the midpoint of the response, the EC50, lay at 56.6 µM and the “effect on oxytocin-induced contractions” value is reported as “inhibited”.

Usually EC50 stands for the concentration that produces a half-maximal response. A lower EC50 goes with a more potent agent.
